{
  "source": "patent US9233954B2",
  "about": "“Organic amine salts of Azilsartan, preparation method and use thereof” (Jiangsu Hansoh Pharmaceutical Co., Ltd., priority 2011, dated 2016)",
  "key": {"Beagle dog": {"test_system": "Beagle dog", "format": "in vivo", "details": "for Clinical observations: Beagle dog, intragastric", "from_the_text": "Acute Toxicity Test Research for Beagle Dog\nObject: Approximate lethal dose method was introduced in the test to observe the acute toxicity response of the animals by intragastric administration of example 2 or Azilsartan medoxomil potassium salt to Beagle dogs to study the toxicity situation of example 2 after administration and compare the toxicity of example 2 and Azilsartan medoxomil potassium salt, which can provide reference confirmation for the evaluation of toxicity of example 2.\nMethod (approximate lethal dose method): 6 Beagle dogs were used, 3 for each of example 2 group and Azilsartan medoxomil potassium salt group. The administration dosage was 0.09, 0.13, 0.19, 0.28, 0.42, 0.63, 0.95, 1.42, 2.13, 3.20 g·kg^−1 respectively, wherein 3.20 g·kg^−1 was the maximum administration dosage (corresponding to 1081 times the given dosage for the clinical patient). The blood was collected before administration and on days 2, 7, and 14 after administration to test the corresponding biochemical indicators. Electrocardiogram, body weight, and body temperature were determined before administration and on days 7 and 14 after administration."}, "Hygroscopicity test": {"test": "Hygroscopicity test", "format": "physicochemical", "details": "25° C.±1° C., RH 80%±2%, 24 h", "method": "1. A dried glass weighing bottle (Outer diameter […]) with a plug was put into an artificial climate box under the temperature of 25° C.±1° C. and relative humidity (RH) of 80%±2% the day before and then weighed precisely (m1).\n2. The testing sample was weighed precisely (m2) and lain into the weighing bottle. The thickness of the test sample was about 1 mm.\n3. The uncovered weighing bottle and its plug were placed under the above constant temperature and humidity conditions for 24 h.\n4. The weighing bottle was covered and weighed precisely (m3).\nCalculation formula: Percent of weight increase=(m3−m2)/(m2−m1)*100%\n5. Definition of the weight increase of the hygroscopicity\nDeliquescence: absorbing enough water to form liquid.\nHigh hygroscopicity: the weight increase of the hygroscopicity is no less than 15%\nHaving hygroscopicity: the weight increase of the hygroscopicity is between 15% and 2%\nSlight hygroscopicity: the weight increase of the hygroscopicity is between 2% and 0.2%\nNo or almost no hygroscopicity: the weight increase of the hygroscopicity is less than 0.2%"}, "Solubility test": {"test": "Solubility test", "details": "conclusion of the solubility test", "procedure": "Moreover, “1:40” refers to 1 g of sample was dissolved in 40 ml of methanol at room temperature, the same as “1:80”; “1:120” refers to 1 g of sample was dissolved in 40 ml of ethanol at room temperature, the same as “1:200”."}, "[1]": {"test_system": "blood pressure of SHR rats", "test": "Antihypertensive effect test for spontaneously hypertensive (SHR) rats", "format": "in vivo", "details": "10 mg/kg", "method": "Antihypertensive Effect Test For Spontaneously Hypertensive (SHR) Rats\n[…] of 25 week old SHR male rats were randomly divided into 4 groups according to the initial blood pressure, with 6 for the control group (solvent) and 8 for other groups. 10 mg/kg of example 2 compound (Choline Azilsartan), example 4 compound (Azilsartan ethanolamine salts) and control (Azilsartan medoxomil potassium salt) were continuously administered, respectively. The solvent control group was administered solvent. The administration volume was 5 ml/kg and the period was 2 weeks."}},
  "note": "Counter-ions that a name gives are not always drawn. Like-named read-outs stand apart in the source and are kept apart here.",
  "data": [
    {"smiles": "CCOc1nc2cccc(C(=O)OCc3oc(=O)oc3C)c2n1Cc1ccc(-c2ccccc2-c2noc(=O)[nH]2)cc1", "note": "[Azilsartan kamedoxomil, Azilsartan medoxomil potassium salt, reference compound]", "values": [
      {"measurement": "Clinical observations", "setting": "Beagle dog; 1.42 g·kg^−1 dosage group", "value": "vomit, less moving; moving reduction on day 2 after administration, moving recovered on day 3 and no abnormality observed after day 3"},
      {"measurement": "Clinical observations", "setting": "Beagle dog; 2.13 g·kg^−1 dosage group", "value": "vomit, drooling, moving reduction; moving reduction on day 2 after administration, moving recovered on day 3 and no abnormality observed after day 3"},
      {"measurement": "Clinical observations", "setting": "Beagle dog; 3.20 g·kg^−1 dosage group", "value": "vomit, drooling, less moving; moving reduction on days 2˜8, prostration on days 5˜8, died on day 9"},
      {"measurement": "Body temperature", "setting": "Beagle dog; dog, in vivo", "value": "no abnormality on day 7 after administration"},
      {"measurement": "Body weight", "setting": "Beagle dog; dog, in vivo", "value": "decreased on day 7 after administration compared with pre-administration"},
      {"measurement": "Electrocardiogram and haematological indicators", "setting": "Beagle dog; dog, in vivo", "value": "not abnormal on day 7 after administration"},
      {"measurement": "PT values", "setting": "Beagle dog; dog, in vivo", "value": "reduced significantly after administration compared to pre-administration"},
      {"measurement": "Systolic blood pressure and diastolic blood pressure", "setting": "Beagle dog; dog, in vivo", "value": "reduced more or less on day 2 after administration"}
    ]},
    {"smiles": "CCOc1nc2cccc(C(=O)[O-])c2n1Cc1ccc(-c2ccccc2-c2noc(=O)[nH]2)cc1.C[N+](C)(C)CCO", "note": "[Example 1]", "values": [
      {"measurement": "Conclusion (hygroscopic or not)", "setting": "Hygroscopicity test", "value": "Yes"},
      {"measurement": "Hygroscopicity (percent of weight increase)", "setting": "Hygroscopicity test", "value": 10.51, "unit": "%"},
      {"measurement": "Solubility, comparison between samples", "setting": "Solubility test", "value": "comparable to the solubility of example 2 compound"}
    ]},
    {"smiles": "CCOc1nc2cccc(C(=O)O)c2n1Cc1ccc(-c2ccccc2-c2noc(=O)[nH]2)cc1.NCCO", "note": "[Example 3]", "values": [
      {"measurement": "Conclusion (hygroscopic or not)", "setting": "Hygroscopicity test", "value": "Yes"},
      {"measurement": "Hygroscopicity (percent of weight increase)", "setting": "Hygroscopicity test", "value": 5.66, "unit": "%"}
    ]},
    {"smiles": "CCOc1nc2cccc(C(=O)O)c2n1Cc1ccc(-c2ccccc2-c2noc(=O)[nH]2)cc1.CCOc1nc2cccc(C(=O)O)c2n1Cc1ccc(-c2ccccc2-c2noc(=O)[nH]2)cc1.NCCO", "note": "[Example 4]", "values": [
      {"measurement": "Antihypertensive effect compared with control (Azilsartan medoxomil potassium salt)", "setting": "[1]; SHR rats, 2 weeks", "value": "superior to the antihypertensive effect of control"},
      {"measurement": "Antihypertensive effect, ranking under the same dosage", "setting": "[1]; SHR rats, 2 weeks", "value": "less effective"},
      {"measurement": "Effect on blood pressure of SHR rats compared with solvent control", "setting": "[1]; continuously administered for one or two weeks, FIG. 4", "value": "reduce the blood pressure of SHR rats significantly"},
      {"measurement": "Hygroscopicity (percent of weight increase)", "setting": "Hygroscopicity test", "value": 0.08, "unit": "%"},
      {"measurement": "Conclusion (hygroscopic or not)", "setting": "Hygroscopicity test; listed as Example 4 Compound", "value": "No"},
      {"measurement": "Conclusion (hygroscopic or not)", "setting": "Hygroscopicity test; listed as example 4 compound", "value": "not hygroscopic"}
    ]}
  ]
}
